Values quoted from earlier work in patent US12097177B2, “Therapeutic method for cat with chronic kidney disease” (Toray Industries, Inc., priority 2021, dated 2024).
Counter-ions that a name gives are not always drawn. Like-named read-outs stand apart in the source and are kept apart here.

Assays:
[1] = humans; cited from earlier work
[2] = rats; cited from earlier work
[3] = system: feline CKD; details: in vivo; cited from earlier work
[4] = system: feline CKD; details: in vivo; cited from earlier work; remark: listed apart in the source
[5] = system: feline CKD; details: in vivo; cited from earlier work; remark: listed apart in the source

Compound: CC#CC[C@H](C)[C@H](O)/C=C/[C@@H]1[C@H]2c3cccc(CCCC(=O)[O-])c3O[C@H]2C[C@H]1O.[Na+] (single isomer, unassigned) [BPS-314d]
- AUC of plasma BPS-314d when BPS is administered (fraction) [1]: ¼
- Cmax of plasma BPS-314d when BPS is administered (fraction) [1]: ¼
- AUC of plasma BPS-314d when BPS is administered (fraction) [2]: ¼
- Cmax of plasma BPS-314d when BPS is administered (fraction) [2]: ¼

Compound: CCOC(=O)[C@H](CCc1ccccc1)N[C@H]1CCc2ccccc2N(CC(=O)O)C1=O [Benazepril hydrochloride, benazepril hydrochloride]
- progression of feline CKD stage [3]: has not been found to inhibit progression of feline CKD stage
- proteinuria [3]: lower the severity of proteinuria
- serum creatinine [3]: inhibit elevation in serum creatinine

Compound: CN1N=C2CCN(C(=O)[C@@H](COCc3ccccc3)NC(=O)C(C)(C)N)C[C@@]2(Cc2ccccc2)C1=O [capromorelin]
- body weight loss [4]: inhibit body weight loss
- overall survival rate or observed survival rate [4]: no improvement in the overall survival rate or the observed survival rate of feline CKD has been demonstrated

Compound: CCCc1nc2c(C)cc(-c3nc4ccccc4n3C)cc2n1Cc1ccc(-c2ccccc2C(=O)O)cc1 [telmisartan]
- proteinuria [5]: improve proteinuria of feline CKD
